Experiment [1] relates to human PBMC effector cells. The experiment is described as follows: ADCC assay using SAMT-247. The format is cell-based. The procedure: ADCC CEM-based assay. ADCC activity was assessed as previously described using EGFP-CEM-NKr-CCR5-SNAP cells that constitutively express GFP as targets (Rahman, M. A., et al, J Immunol 203, 2459-2471(2019)). Briefly, one million target cells were incubated with 50 μg of ΔV1 gp120 protein for 2 h at 37° C. After this coating, the target cells were washed and labeled with SNAP-SURFACE® ALEXA FLUOR® 647 (New England Biolabs, Connecticut, USA S9136S) per manufacturer recommendations for 30 min at RT. Plasma samples, heat inactivated at 56° C. for 30 min, were serially diluted (7 ten-fold dilutions starting at 1:10) and 100 μl were added to wells of a 96-well V-bottom plate (Millipore Sigma). 5000 target cells (50 μl) and 250,000 human PBMCs (50 μl) were added as effectors to each well to give an effector/target (E/T) ratio of 50:1. The plate was incubated at 37° C. for 2 h followed by two PBS washes. […] Specific killing was measured by loss of GFP from the SNAPAlexa647+ target cells. […] Normalized percent killing was calculated as: (killing in the presence of plasma-background)/(killing in the presence of KK17-background) X100. […]
ADCC assay using SAMT-247. […] SAMT-247 induced ADCC was measured by subtracting ADCC with no SAMT-247 treated effector cells from ADCC with SAMT-247 treated effector cells.

Experiment [2] has as its system CD14^+ monocytes. The experiment is described as follows: Zinc chelation: macaque blood monocytes, SAMT-247 and/or gp120 peptides with or without TPEN. Format: cell-based. How it is done: Zinc chelation: The frequencies and cytokine levels of NK cells, monocytes and T cells were measured in macaque blood. Cryopreserved PBMCs were thawed and cultured in R10 in the presence/or absence of SAMT-247 and/or gp120 peptides for 12 hours. Cells were incubated with or without Zinc chelator TPEN (cat. #P4413-100 MG, 5 μM) for 12 h. Subsequently, cells were stained for live cells with Live/Dead Blue dye (cat. #L34962, 0.5 μl) from Thermofisher; followed by surface staining with the following: Alexa 700 anti-CD3 (SP34-2; cat. #557917, 5 μl), BV711 anti-CD4 (L200; cat. #563913, 5 μl), BB700 anti-CD8 (RPA-T8; cat. #566452, 5 μl), BUV737 anti-CD20 (2H7; cat. #612848, 5 μl), PE anti-CD45 (D058-1283; cat. #552833, 5 μl), BV786 anti-CCR5 (3A9; cat. #565001, 5 μl), BV496 anti-CD16 (3G8; cat. #612944, 5 μl), BUV661 anti-HLA-DR (G46-6; cat. #612980, 5 μl), BUV805 anti-CD14 (M5E2; cat. #565779, 5 μl) from BD Biosciences; APC-H7 anti-CD11b (ICRF44; cat. #47-0118-42, 5 μl), PE-Cy5 anti-CD95 (ICRF44; cat. #15-0959-42, 5 μl) from eBioscience; APC anti-α4β7, provided by the NIH Nonhuman Primate Reagent Resource (R24 OD010976, and NIAID contract HHSN272201300031C); BV605 anti-CCR6 (G034E3; cat. #353420, 5 μl), BV650 anti-CXCR3 (G025H7; cat. #353730, 5 μl), from Biolegend and PE-Cy7 anti-NKG2A (Z199; cat. #B10246, 5 μl) from Beckman coulter for 30 minutes at room temperature. This was followed by permeabilization with a FOX3-transcription buffer set (cat. #00-5523-00) from eBioscience according to the manufacture's recommendation and subsequently intracellular staining with the following: BV750 anti-TNF-α (MAB11; cat. #566359, 5 μl), BUV395 anti-IFN-γ (B27; cat. #563563, 5 μl), BV510 anti-GranB (GB11; cat. #563388, 5 μl), BV421 anti-IL-10 (JES3-9D7; cat. #564053, 5 μl), PE-CF594 anti-Ki67 (B56; cat. #567120, 5 μl) from BD Biosciences and FITC anti-Perforin (pf-344; cat. #3465-7, 5 μl) from MABTECH for 30 minutes at room temperature. Flow cytometry acquisitions were performed on a FACSYMPHONY™ A5 and examined using FACSDIVA™ software (BD Biosciences).

On to `CC(=O)Sc1ccccc1C(=O)NCCC(N)=O` [SAMT-247], for which, in experiment [1] (NKG2A^+, Blood and mucosa, PMA), the Function result is listed as “>ADCC”. For the same molecule, the “ADCC activity mediated by the plasma of all vaccinated animals” value in experiment [1] (effector human PBMCs pretreated with 100 nM SAMT-247 for 4 hours) is on record as “significantly augments”. In addition, the Cytokine result in experiment [2] (Monocytes unstimulated or +gp120 peptides, * Zinc dependence) was “>IL-10 *”. In addition, the “IL-10 expression in CD14^+ monocytes” value in experiment [2] (SAMT-247 alone or together with gp120 peptides) is recorded as “increased”.

The values above are taken from patent US20240277829A1, “HIV-1 VACCINATION AND SAMT-247 MICROBICIDE TO PREVENT HIV-1 INFECTION” (priority 2021, published 2024).
